Test system: 926638-142-R-J1-PDC complex spheroid viability
Assay: Anticancer human tumor 926638-142-R-J1-PDC patient-derived endometrial carcinoma cell line growth inhibition [POLQ]
Details: for IC50: curve of first compound; for viability, T/C: stronger effect = lower value
Protocol: Multicellular complex tumor spheroid response to Polymerase (POL) inhibitors (novobiocin, ART-558, RP6685) in combination with a variety of drugs and investigational agents in selected tumor cell lines
The POL inhibitors (novobiocin, ART-558, and RP6685) were evaluated both individually and in combination with standard of care and investigational anticancer small molecules within a complex spheroid model of solid tumors. . Complex spheroids include a stromal component modeled by human endothelial cells (HUVEC) and fibroblasts modeled by human mesenchymal stem cells (MSCs). The concentration ranges selected for each drug and investigational agent were based upon clinically achievable concentrations if the clinical Cmax of the agent was known.
Compounds. The drugs and investigational agents: novobiocin (NSC847541), ART-558 (NSC835418), RP-6685 (NSC848927), peposertib (NSC802822), ceralasertib (NSC780249), elimusertib (NSC800525), camonsertib (NSC841442), AZD-1390 (NSC803789), olaparib (NSC753686), talazoparib (NSC767125), rucaparib (NSC756644), sotorasib (NSC818433), MRTX-1133 (NSC836407), SN-38 (NSC673596), topotecan (NSC609699), epotoside (NSC141540), doxorubicin (NSC123127), gemcitabine (NSC613327), 5-fluorouracil (NSC19893), paclitaxel (NSC125973), vemurafenib (NSC761431), MSA-2 (NSC828583), SN-011 (NSC837082), adavosertib (NSC754352), prexasertib (NSC758257), carboplatin (NSC241240) and oxaliplatin (NSC266046), were obtained from the National Cancer Institute (NCI) Developmental Therapeutics Program Chemical Repository (21). The FDA-approved anticancer drug set is available from the Developmental Therapeutics Program at https://dtp.cancer.gov/organization/dscb/obtaining/. […] The stock solutions were prepared in dimethyl sulfoxide (DMSO, Sigma-Aldrich, St. Louis, MO, cat. D2650), except for the platinum compounds which were prepared in saline (Quality Biological, Gaithersburg, MD, cat. 114-055-101), at 800-fold the tested concentration and stored at -70 degrees C prior to their use. All drugs and investigational agents were tested over a range starting from a high concentration at or near the clinical Cmax and decreasing in half-log increments. If the clinical Cmax for an agent had not been determined, the highest concentration tested was 10 microM, except for SN-38, which was tested at a high concentration of 1 microM.
Cell Culture. All cells were maintained in an incubator at 37 degrees C and 5% CO2 with 95% humidity. The PDC lines were cultured according to standard operating procedures established by the NCI PDMR (https://pdmr.cancer.gov). Table 3 of the manuscript, lists the cell lines along with the number of the three cell types plated to form the mct-spheroids and media for tumor cell growth. After thawing, all PDC lines, except 997537-175-T-J1-PDC and 415267-285-R-J2-PDC, were cultured in Matrigel-coated flasks prepared with a working solution of 1X Ham's F-12 nutrient mix, without supplementation (Thermo Fisher Scientific, cat. 11765054), 100 U/mL penicillin-streptomycin (Thermo Fisher Scientific, cat. 15140122), and 2.5% Matrigel (Corning Inc., Corning, NY, cat. 354248) for the first three passages. The two PDC lines 997537-175-T-J1-PDC and 415267-285-R-J2-PDC were cultured on uncoated flasks. The 857933-349-R-J2-PDC line was cultured in 6C/Colon 1B media containing advanced DMEM/F-12 (Thermo Fisher Scientific, cat. 12634028), 10 mM HEPES (Thermo Fisher Scientific, cat. 15630080), 1X GlutaMAX supplement (Thermo Fisher Scientific, cat. 35050061), 0.1 mg/mL primocin (InvivoGen, San Diego, CA, cat. ant-pm-2), 10% defined fetal bovine serum, heat inactivated (HyClone Laboratories Inc., Logan, UT, cat. SH30070.03HI), 50% L-WRN conditioned media (ATCC, cat. CRL-3276), 1.25 mM N-Acetyl-L-cysteine (Sigma-Aldrich, cat. A9165), 10 mM nicotinamide (Sigma-Aldrich, cat. N0636), 1X B-27 supplement (Thermo Fisher Scientific, cat. 17504044), 1X N-2 supplement (Thermo Fisher Scientific, cat. […]

[1] = second compound 0.0316 µM, first compound 0.0316 µM
[2] = second compound 0.0316 µM, first compound 0.1 µM
[3] = second compound 0.0316 µM, first compound 0.316 µM
[4] = second compound 0.0316 µM, first compound 1 µM
[5] = second compound 0.1 µM, first compound 0.0316 µM
[6] = second compound 0.1 µM, first compound 0.1 µM
[7] = second compound 0.1 µM, first compound 0.316 µM
[8] = second compound 0.1 µM, first compound 1 µM
[9] = second compound 0.316 µM, first compound 0.0316 µM
[10] = second compound 0.316 µM, first compound 0.1 µM
[11] = second compound 0.316 µM, first compound 0.316 µM
[12] = second compound 0.316 µM, first compound 1 µM
[13] = second compound 1 µM, first compound 0.0316 µM
[14] = second compound 1 µM, first compound 0.1 µM
[15] = second compound 1 µM, first compound 0.316 µM
[16] = second compound 1 µM, first compound 1 µM
[17] = second compound 3.16 µM, first compound 0.0316 µM
[18] = second compound 3.16 µM, first compound 0.1 µM
[19] = second compound 3.16 µM, first compound 0.316 µM
[20] = second compound 3.16 µM, first compound 1 µM
[21] = second compound 10 µM, first compound 0.0316 µM
[22] = second compound 10 µM, first compound 0.1 µM
[23] = second compound 10 µM, first compound 0.316 µM
[24] = second compound 10 µM, first compound 1 µM
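Note: spheroids exposed to drugs for one week before readout.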
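Throughout, for viability, T/C: percent viability relative to DMSO vehicle control wells set as 100%.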

In the case of `CCc1cc2c(N3CCc4c(cc(Cn5ccnc5)cc4-c4cn(C)nc4C(F)(F)F)C3=O)ccnc2c(OC)n1` + Nc1ccc(C#CCN(C(=O)Cc2ncc(C(F)(F)F)cc2C(F)(F)F)c2ccc(F)cc2)nn1, the IC50 (second compound 0.0316 µM) is reported as 1.06 µM, the IC50 (second compound 0.1 µM) is reported as 0.879 µM and the IC50 (second compound 0.316 µM) is reported as 0.713 µM. The IC50 (second compound 1 µM) was 0.931 µM, the IC50 (second compound 3.16 µM) was 0.578 µM and the IC50 (second compound 10 µM) was 0.757 µM. It also gave a viability, T/C [1] of 88.5%, a viability, T/C [2] of 73.4% and a viability, T/C [3] of 59.6%. For the same compound, the viability, T/C [4] was 54.3%, the viability, T/C (second compound 0.0316 µM, first compound 3.16 µM) was 38.7% and the viability, T/C (second compound 0.0316 µM, first compound 10 µM) was 26.6%. For the same compound, the viability, T/C [5] was 81.5%, the viability, T/C [6] was 77.6% and the viability, T/C [7] was 59.8%. It also gave a viability, T/C [8] of 49.8%, a viability, T/C (second compound 0.1 µM, first compound 3.16 µM) of 36.8% and a viability, T/C (second compound 0.1 µM, first compound 10 µM) of 29.6%. The viability, T/C [9] was 88.8%, the viability, T/C [10] was 73.4% and the viability, T/C [11] was 53.4%. The viability, T/C [12] was 48.1%, the viability, T/C (second compound 0.316 µM, first compound 3.16 µM) was 41.2% and the viability, T/C (second compound 0.316 µM, first compound 10 µM) was 29.4%. It also gave a viability, T/C [13] of 83.7%, a viability, T/C [14] of 67.3% and a viability, T/C [15] of 62.4%. For the same compound, the viability, T/C [16] was 45.3%, the viability, T/C (second compound 1 µM, first compound 3.16 µM) was 44.8% and the viability, T/C (second compound 1 µM, first compound 10 µM) was 33.3%. For the same compound, the viability, T/C [17] was 68.3%, the viability, T/C [18] was 70.5% and the viability, T/C [19] was 58%. The viability, T/C [20] was 41.7%, the viability, T/C (second compound 3.16 µM, first compound 3.16 µM) was 38.2% and the viability, T/C (second compound 3.16 µM, first compound 10 µM) was 31.7%. For the same compound, the viability, T/C [21] was 86.4%, the viability, T/C [22] was 67.2% and the viability, T/C [23] was 59.8%. The viability, T/C [24] was 48.5%, the viability, T/C (second compound 10 µM, first compound 3.16 µM) was 37.3% and the viability, T/C (second compound 10 µM, first compound 10 µM) was 32.4%.
`COc1cccc(OCCCN)c1-c1cc(Nc2cnc(C#N)cn2)n[nH]1` + Nc1ccc(C#CCN(C(=O)Cc2ncc(C(F)(F)F)cc2C(F)(F)F)c2ccc(F)cc2)nn1 was tested, and the IC50 (second compound 0.0316 µM) was 0.0707 µM, the IC50 (second compound 0.1 µM) was 0.112 µM and the IC50 (second compound 0.316 µM) was 0.0949 µM. The IC50 (second compound 1 µM) was 0.0776 µM, the IC50 (second compound 3.16 µM) was 0.0406 µM and the IC50 (second compound 10 µM) was 0.0654 µM. For the same compound, the viability, T/C (second compound 0.0316 µM, first compound 0.00316 µM) was 115%, the viability, T/C (second compound 0.0316 µM, first compound 0.01 µM) was 76.4% and the viability, T/C [1] was 56%. It also gave a viability, T/C [2] of 47.3%, a viability, T/C [3] of 49.3% and a viability, T/C [4] of 32.3%. The viability, T/C (second compound 0.1 µM, first compound 0.00316 µM) was 115%, the viability, T/C (second compound 0.1 µM, first compound 0.01 µM) was 84.6% and the viability, T/C [5] was 62.7%. For the same compound, the viability, T/C [6] was 50.7%, the viability, T/C [7] was 48.4% and the viability, T/C [8] was 31.3%. For the same compound, the viability, T/C (second compound 0.316 µM, first compound 0.00316 µM) was 111%, the viability, T/C (second compound 0.316 µM, first compound 0.01 µM) was 79.2% and the viability, T/C [9] was 60.4%. For the same compound, the viability, T/C [10] was 48.3%, the viability, T/C [11] was 48.2% and the viability, T/C [12] was 36.7%. It also gave a viability, T/C (second compound 1 µM, first compound 0.00316 µM) of 121%, a viability, T/C (second compound 1 µM, first compound 0.01 µM) of 78.5% and a viability, T/C [13] of 60.6%. The viability, T/C [14] was 45.9%, the viability, T/C [15] was 48.5% and the viability, T/C [16] was 31.6%. For the same compound, the viability, T/C (second compound 3.16 µM, first compound 0.00316 µM) was 89.5%, the viability, T/C (second compound 3.16 µM, first compound 0.01 µM) was 73.4% and the viability, T/C [17] was 49.5%. The viability, T/C [18] was 43.4%, the viability, T/C [19] was 45.2% and the viability, T/C [20] was 31.7%. For the same compound, the viability, T/C (second compound 10 µM, first compound 0.00316 µM) was 86.6%, the viability, T/C (second compound 10 µM, first compound 0.01 µM) was 71.7% and the viability, T/C [21] was 50.2%. For the same compound, the viability, T/C [22] was 44.2%, the viability, T/C [23] was 51.3% and the viability, T/C [24] was 27.1%.

Reference: PubChem BioAssay AID1963826 (Molecular Pharmacology Branch, DTP, NCI, 2024)
